Results on 14 compounds are retold here after PubChem BioAssay (NCI).

Experiment in all cases: DTP human tumour cell line panel, 48 h
The subject of assay [1] is LOX IMVI melanoma.
For assay [2], the system named is SN12C renal.
For assay [3], the system named is OVCAR-3 ovarian.
The test system of assay [4] is SK-MEL-2 melanoma.
Assay [5] relates to PC-3 prostate.
In assay [6] the test system is HT29 colon.
Assay [7] has as its system IGROV1 ovarian.
The test system of assay [8] is U251 CNS.
Assay [9] deals with A549 NSCLC.
In assay [10] the test system is 786-0 renal.

Values joined by “and” are separate entries in the source; they are usually repeats but may differ in a detail not shown here. Equal values may be shown once.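 Five compound concentrations were applied to cells in 96-well plates for 48 hours; endpoints were derived by simple linear interpolation of the resulting dose-response curve. GI50 marks 50% less growth. The concentration for full growth arrest is given as TGI.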 *1 amine or outer side, *2 acyl side, *3 side chain or, on linkers, in order; H or OH if unused. Where a SMILES comes first, the peptide text is derived from it. Bridges are numbered along the chain shown (N, C = ends). [ ]: non-standard residue; d: D form. ξ: configuration not given here. X4 = CCC(C)C(N[*:1])C(O)CC(=O)O[C@H](C(=O)C(C)C(=O)[*:2])C(C)C; NMeY = CN[C@@H](Cc1ccc(O)cc1)C(=O)O; ξNMeL = CNC(CC(C)C)C(=O)O; ξT = CC(O)C(N)C(=O)O

`CC1=CC[C@@H]2CC[C@]3(C)[C@H](CC[C@@H]4[C@@]5(C)CCCNC(C)(C)[C@@H]5CC[C@]43C)[C@H]2[C@@H]1C`: the GI50 in [1] is 1.66 µM; in assay [2], 1.83 µM; in [3] it was 1.91 µM; in [4], 1.81 µM; in [5] it was 1.58 µM. In addition, the TGI in [1] is 3.01 µM; in assay [2], 3.44 µM; in [3], 3.37 µM; in [4], 3.48 µM; in assay [5], 3.02 µM.

As for `COC(=O)C(C)Sc1nc2cc(Cl)ccc2s1` (stereo not drawn), the TGI in [2], in assay [3], in assay [6], in assay [7], in assay [8] and in assay [5] was above 100 µM in each case. The TGI in assay [9] and in [10] was above 100 µM throughout.

Regarding `C=C1C[C@]23C[C@@]1(O)CC[C@H]2[C@@]12C=C[C@H](O)[C@@](C)(C(=O)O1)[C@H]2[C@@H]3C(=O)O`, the TGI in assay [1], in assay [2], in assay [3], in assay [4], in [6] and in assay [7] was above 100 µM each time. Moreover, the TGI in assay [8], in assay [9] and in [10] was above 100 µM in each case.

Turning to `O=C(O)c1ccc(Nc2nc3cc(C(F)(F)F)ccc3nc2C(=O)O)cc1`, the TGI in assay [1], in assay [2], in assay [3], in assay [4], in assay [6] and in assay [7] was above 100 µM each time. Also, the TGI in assay [8], in assay [5] and in assay [10] was above 100 µM throughout.

Take `CC[N+](CC)=c1ccc2nc3c(cc(N)c4ccccc43)oc-2c1`: in assay [4], the GI50 was 0.968 µM and the TGI was determined as 2.25 µM. For the same compound, in assay [5], the GI50 was 0.567 µM and the TGI was determined as 6.94 µM.

For `CSC1SCC2C(=O)N(C)C3(CC3C)C(=O)OCC(NC(=O)c3nc4ccccc4cc3O)C(=O)NC(C)C(=O)N(C)C1C(=O)N(C)C1(CC1C)C(=O)OCC(NC(=O)c1nc3ccccc3cc1O)C(=O)NC(C)C(=O)N2C` (stereo not drawn), the TGI in [1] is below 0.0001 µM; in assay [3], below 0.0001 µM; in assay [6], 4.21 µM; in assay [7], 0.281 µM; in assay [8] it was below 0.0001 µM; in assay [9], 20.1 µM.

`CSc1nncc(-c2cc3c(c(SC)n2)CCC3)n1`: the TGI in [2] is above 100 µM; in assay [3] it was above 100 µM; in assay [4], above 100 µM; in assay [6], above 100 µM; in assay [7], 10.1 µM; in assay [8] it was above 100 µM. Further, the TGI in assay [5], in [9] and in [10] was above 100 µM in each case.

With `CCOC(=O)c1c(N2CCOCC2)[nH]c(=O)c(C(c2ccc(OC)cc2)c2c(O)c(C(=O)OCC)c(N3CCOCC3)[nH]c2=O)c1O`, the TGI in [1], in [2], in assay [3], in assay [6], in assay [8] and in assay [5] was above 100 µM each time. In addition, the TGI in assay [9] and in assay [10] was above 100 µM in each case.

On to `O=C(NCCNCCO)N/N=C/c1ccc(Cl)cc1`, for which the TGI in assay [2], in assay [3], in assay [4], in [6], in assay [7] and in [8] was above 100 µM each time. Besides, the TGI in [5], in assay [9] and in assay [10] was above 100 µM in each case.

As for `CCOC(=O)c1sc2c(c1OC(=O)c1ccccc1)c(=O)n(-c1ccccc1)c(=S)n2-c1ccccc1`, the concentration for total growth inhibition (TGI) is above 100 µM in assay [1]; above 100 µM in [2]; 95.6 µM in assay [3]; 38.1 µM in [6]; 43.3 µM in assay [7]; 46.5 µM in assay [8]. Also, the TGI in [5] is above 100 µM; in assay [9], 64.2 µM; in assay [10], 29.4 µM.

For `CCC(C)C1NC(=O)C(NC(=O)C(CC(C)C)N(C)C(=O)[C@@H]2CCCN2)C(C)OC(=O)[C@H](Cc2ccc(OC)cc2)N(C)C(=O)[C@@H]2CCCN2C(=O)[C@H](CC(C)C)NC(=O)C(C)C(=O)[C@H](C(C)C)OC(=O)CC1O` (stereo partly drawn) (H-P[ξNMeL][ξT][X4]LP[NMeY](Me); ester 3-C), the TGI in [1] was 0.00206 µM and 0.0101 µM; in assay [3], 0.00686 µM; in assay [6], 0.0151 µM and 0.0127 µM; in assay [7], 0.0107 µM; in assay [8], 0.0114 µM; in [5], 0.0115 µM. Further, the TGI was 0.0246 µM and 0.0289 µM in assay [9]; 0.0115 µM and 0.0174 µM in assay [10].

For `NC(=O)COc1ccccc1`, the TGI in assay [1], in assay [2], in [3], in assay [4], in [6] and in assay [7] was above 100 µM throughout. In addition, the TGI in assay [8], in assay [9] and in [10] was above 100 µM in each case.

With `COc1c/c(=C2/C=c3ccccc3=N2)[nH]/c1=C/c1[nH]c(C)cc1C`, the GI50 was 0.046 µM in assay [3]; 0.029 µM in [4]; 0.0724 µM in assay [7]; 0.0454 µM in [8]; 0.059 µM in assay [5]; 0.219 µM in assay [9]. Moreover, the TGI in [3] was 1.02 µM; in [4], 0.119 µM; in assay [7], above 100 µM; in [8], 1.52 µM; in [5] it was above 100 µM; in assay [9] it was above 100 µM.

For the compound `OCCN=C1Nc2ccc(Cl)cc2C(=S)N2CSC[C@@H]12`, the TGI in assay [2], in [3], in assay [4], in assay [6], in assay [8] and in assay [5] was above 100 µM throughout. Further, the TGI in assay [9] and in assay [10] was above 100 µM each time.
